In EPA's ToxRefDB 2:

Tests used:
rat [1] = details: Subchronic oral toxicity in rodents, Fischer, Gavage/Intubation, dose end: 13 week, group: systemic, systemic / hematology / erythrocyte (rbc) count differential / erythrocyte (rbc) + systemic / hematology / hematocrit (hct) / hematocrit (…
mouse [2] = details: Combined chronic toxicity/carcinogenicity, b6c3f1, Oral, Gavage/Intubation, dose end: 103 week, group: systemic
mouse [3] = details: Subchronic oral toxicity in rodents, b6c3f1, Gavage/Intubation, dose end: 13 week, group: systemic
rat [4] = details: Combined chronic toxicity/carcinogenicity; fischer; Oral; Gavage/Intubation; dose end: 103 week; group: systemic; systemic / hematology / erythrocyte (rbc) count differential / erythrocyte (rbc) + systemic / hematology / hematocrit (hct) / hematocrit (…
rat [5] = details: Combined chronic toxicity/carcinogenicity; fischer; Oral; Feed; dose end: 365 day; group: systemic; systemic / pathology microscopic / liver / hepatocellular carcinoma + systemic / pathology microscopic / testes / adenoma + systemic / in …
mouse [6] = details: Combined chronic toxicity/carcinogenicity; other; Oral; Feed; dose end: 365 day; group: systemic; systemic / in life observation / body weight / body weight
dog [7] = details: Sub-acute repeat dose toxicity, beagle, Oral, Gavage/Intubation, dose end: 14 day, group: systemic
dog [8] = details: Sub-acute repeat dose toxicity, beagle, Oral, Gavage/Intubation, dose end: 28 day, group: systemic
mouse [9] = details: Sub-acute repeat dose toxicity, Oral, Gavage/Intubation, dose end: 28 day
mouse [10] = details: Sub-acute repeat dose toxicity, Oral, Gavage/Intubation, dose end: 28 day; remark: listed apart in the source
dog [11] = details: Chronic toxicity, beagle, Oral, Gavage/Intubation, dose end: 182 day, group: systemic, systemic / in life observation / clinical signs / defecation (diarrhea) + systemic / in life observation / clinical signs / feces
dog [12] = details: Chronic toxicity, beagle, Oral, Gavage/Intubation, dose end: 182 day, group: systemic
mouse [13] = details: Sub-acute repeat dose toxicity, Oral, Gavage/Intubation, dose end: 14 day, group: systemic
mouse [14] = details: Chronic toxicity, Oral, Gavage/Intubation, dose end: 182 day
[15] = systemic / pathology microscopic / blood / lymphoma malignant + systemic / pathology microscopic / kidney / hemosiderosis + systemic / …
[16] = systemic / pathology microscopic / blood / lymphoma malignant + systemic / pathology microscopic / liver / hematopoietic cell proliferation…
[17] = systemic / hematology / erythrocyte (rbc) count differential / erythrocyte (rbc) + systemic / hematology / hematocrit (hct) / hematocrit (…
[18] = systemic / hematology / hematocrit (hct) / hematocrit (hct) + systemic / pathology microscopic / spleen / hematopoietic cell proliferation…
[19] = systemic / in life observation / body weight / body weight + systemic / in life observation / clinical signs / defecation (diarrhea) + …
[20] = systemic / pathology gross / oral mucosa / discolored
[21] = systemic / clinical chemistry / cholesterol / cholesterol + systemic / clinical chemistry / triglycerides / triglycerides + systemic / …
[22] = systemic / in life observation / clinical signs / defecation (diarrhea) + systemic / in life observation / clinical signs / delayed sexual …
[23] = group: maternal, reproductive / reproductive performance / estrous cycle / absent corpora lutea
[24] = group: systemic, systemic / clinical chemistry / alkaline phosphatase (alp/alk) / alkaline phosphatase (alp/alk) + systemic / hematology / mean corpuscular (…
[25] = group: systemic, systemic / hematology / mean corpuscular (cell) volume (mcv) / mean corpuscular (cell) volume (mcv) + systemic / hematology / mean …
[26] = systemic / in life observation / clinical signs / abnormal feces
[27] = systemic / in life observation / clinical signs / abnormal feces + systemic / in life observation / body weight / body weight + systemic / …
[28] = systemic / clinical chemistry / albumin / albumin + systemic / clinical chemistry / protein / protein + systemic / hematology / erythrocyte…
[29] = systemic / in life observation / body weight / body weight
[30] = group: reproductive, reproductive / reproductive performance / estrous cycle / absent corpora lutea
[31] = group: systemic, systemic / hematology / erythrocyte (rbc) count differential / erythrocyte (rbc) + systemic / in life observation / body weight / body …

Cl.Nc1ccc(Cl)cc1 [4-Chloroaniline hydrochloride]
LEL (rat [1]): 5 mg/kg/day
LOAEL (rat [1]): > 80 mg/kg/day
NEL (rat [1]): < 5 mg/kg/day
NOAEL (rat [1]): ≥ 80 mg/kg/day
LOAEL (mouse [2]; [15]): > 30 mg/kg/day
NOAEL (mouse [2]; [15]): ≥ 30 mg/kg/day
LEL (mouse [2]; [16]): 3 mg/kg/day
NEL (mouse [2]; [16]): < 3 mg/kg/day
LOAEL (mouse [3]; [17]): 15 mg/kg/day
NOAEL (mouse [3]; [17]): 7.5 mg/kg/day
LEL (mouse [3]; [18]): 7.5 mg/kg/day
NEL (mouse [3]; [18]): < 7.5 mg/kg/day
LEL (rat [4]): 2 mg/kg/day
LOAEL (rat [4]): 6 mg/kg/day
NEL (rat [4]): < 2 mg/kg/day
NOAEL (rat [4]): 2 mg/kg/day

NC(=O)CCCCC(N)=O [Adipamide]
LEL (rat [5]): 1200 mg/kg/day
LOAEL (rat [5]): > 1200 mg/kg/day
NEL (rat [5]): < 1200 mg/kg/day
NOAEL (rat [5]): ≥ 1200 mg/kg/day
LEL (mouse [6]): 3600 mg/kg/day
LOAEL (mouse [6]): > 3600 mg/kg/day
NEL (mouse [6]): < 3600 mg/kg/day
NOAEL (mouse [6]): ≥ 3600 mg/kg/day

CNC(=O)c1ccccc1Sc1ccc2c(/C=C/c3ccccn3)n[nH]c2c1 [Axitinib]
LOAEL (dog [7]; [19]): > 150 mg/kg/day
NOAEL (dog [7]; [19]): ≥ 150 mg/kg/day
LEL (dog [7]; [20]): 12 mg/kg/day
NEL (dog [7]; [20]): < 12 mg/kg/day
LOAEL (dog [8]; [21]): > 50 mg/kg/day
NOAEL (dog [8]; [21]): ≥ 50 mg/kg/day
LEL (dog [8]; [22]): 5 mg/kg/day
NEL (dog [8]; [22]): < 5 mg/kg/day
LEL (mouse [9]; [23]): 125 mg/kg/day
LOAEL (mouse [9]; [23]): > 125 mg/kg/day
NEL (mouse [9]; [23]): 15 mg/kg/day
NOAEL (mouse [9]; [23]): ≥ 125 mg/kg/day
LOAEL (mouse [9]; [24]): > 125 mg/kg/day
NEL (mouse [9]; [24]): 5 mg/kg/day
NOAEL (mouse [9]; [24]): ≥ 125 mg/kg/day
LEL (mouse [9]; [25]): 15 mg/kg/day
LEL (mouse [10]; [23]): 125 mg/kg/day
LOAEL (mouse [10]; [23]): > 125 mg/kg/day
NEL (mouse [10]; [23]): 15 mg/kg/day
NOAEL (mouse [10]; [23]): ≥ 125 mg/kg/day
LOAEL (mouse [10]; [24]): > 125 mg/kg/day
NEL (mouse [10]; [24]): 5 mg/kg/day
NOAEL (mouse [10]; [24]): ≥ 125 mg/kg/day
LEL (mouse [10]; [25]): 15 mg/kg/day
LEL (dog [11]): 1 mg/kg/day
LOAEL (dog [11]): > 5 mg/kg/day
NEL (dog [11]): < 1 mg/kg/day
NOAEL (dog [11]): ≥ 5 mg/kg/day
LEL (dog [12]; [26]): 1 mg/kg/day
NEL (dog [12]; [26]): < 1 mg/kg/day
LOAEL (dog [12]; [27]): > 5 mg/kg/day
NOAEL (dog [12]; [27]): ≥ 5 mg/kg/day
LOAEL (mouse [13]; [28]): > 250 mg/kg/day
NOAEL (mouse [13]; [28]): ≥ 250 mg/kg/day
LEL (mouse [13]; [29]): 25 mg/kg/day
NEL (mouse [13]; [29]): < 25 mg/kg/day
LEL (mouse [14]; [30]): 5 mg/kg/day
LOAEL (mouse [14]; [30]): > 125 mg/kg/day
NEL (mouse [14]; [30]): < 5 mg/kg/day
NOAEL (mouse [14]; [30]): ≥ 125 mg/kg/day
LOAEL (mouse [14]; [31]): > 125 mg/kg/day
NEL (mouse [14]; [31]): 5 mg/kg/day
NOAEL (mouse [14]; [31]): ≥ 125 mg/kg/day
LEL (mouse [14]; group: systemic, systemic / hematology / erythrocyte (rbc) count differential / erythrocyte (rbc) + systemic / in life observation / clinical signs / poor …): 15 mg/kg/day
